Legend:
Assay in all cases: relative viability (nuclei count vs DMSO), 5 days (fraction); higher = more cells survive
[1] = compound: CC[C@H](C)N1C=C(C2=C(C=C(C=C21)C3=CN=C(C=C3)N4CCNCC4)C(=O)NCC5=C(C=C(NC5=O)C)C)C [GSK126] + CCNC(=O)c1noc(-c2cc(C(C)C)c(O)cc2O)c1-c1ccc(CN2CCOCC2)cc1 [Luminespib] (partner 0.01 µM)
Outline: (§1)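 Relative viability is defined as nuclei in treated wells over nuclei in vehicle wells. Duplicate plates were run and medians reported. Lung cancer cell lines in 1536-well plates were dosed by pin tool one day after seeding, with one drug or with a fixed anchor-drug dose plus five library-drug doses (not always all listed) in √10 steps, and nuclei were counted after 5 days.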

[2] = compound: CC[C@H](C)N1C=C(C2=C(C=C(C=C21)C3=CN=C(C=C3)N4CCNCC4)C(=O)NCC5=C(C=C(NC5=O)C)C)C [GSK126] + COc1cc2c(Oc3ccc(NC(=O)C4(C(=O)Nc5ccc(F)cc5)CC4)cc3F)ccnc2cc1OCCCN1CCOCC1 [Foretinib] (partner 0.25 µM)
Outline: as §1

[3] = compound: NS(=O)(=O)OC[C@@H]1C[C@@H](n2ccc3c(N[C@H]4CCc5ccccc54)ncnc32)C[C@@H]1O [MLN4924] + COc1cccc2cc(-c3nc([C@H]4CC[C@H](C(=O)O)CC4)n4ncnc(N)c34)[nH]c12 [OSI-027] (partner 0.5 µM)
Outline: as §1

[4] = compound: NS(=O)(=O)OC[C@@H]1C[C@@H](n2ccc3c(N[C@H]4CCc5ccccc54)ncnc32)C[C@@H]1O [MLN4924] + Nc1nc2[nH]cc(CCc3ccc(C(=O)N[C@@H](CCC(=O)O)C(=O)O)cc3)c2c(=O)[nH]1 [Pemetrexed] (partner 0.2 µM)
Outline: as §1

UMC-11
relative viability ([1]; first compound 0.08 µM): 1.19 | relative viability ([1]; first compound 0.253 µM): 1.07 | relative viability ([1]; first compound 0.8 µM): 1.04 | relative viability ([1]; first compound 2.53 µM): 1.07 | relative viability ([1]; first compound 8 µM): 1.31 | relative viability ([2]; first compound 0.08 µM): 1.04 | relative viability ([2]; first compound 0.253 µM): 1.04 | relative viability ([2]; first compound 0.8 µM): 1.02 | relative viability ([2]; first compound 2.53 µM): 1.03 | relative viability ([2]; first compound 8 µM): 1.19 | relative viability ([3]; first compound 0.04 µM): 0.429 | relative viability ([3]; first compound 0.1265 µM): 0.315 | relative viability ([3]; first compound 0.4 µM): 0.271 | relative viability ([3]; first compound 1.265 µM): 0.168 | relative viability ([3]; first compound 4 µM): 0.179 | relative viability ([4]; first compound 0.04 µM): 0.53 | relative viability ([4]; first compound 0.1265 µM): 0.327 | relative viability ([4]; first compound 0.4 µM): 0.289 | relative viability ([4]; first compound 1.265 µM): 0.175 | relative viability ([4]; first compound 4 µM): 0.159

Reference: the supplement of paper PMC10307832
